Data as given in ChEMBL document CHEMBL1201861, “Genomics of Drug Sensitity in Cancer screening data, Wellcome Trust Sanger Institute”.

How the values were obtained:
Assay in all cases: cells
[1] = test system: NCI-H1581; type: functional, cell-based, Homo sapiens; settings: Homo sapiens, NCI-H1581;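 further: cell growth inhibition read out by a viability assay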
Description: SANGER: Inhibition of human NCI-H1581 cell growth in a cell viability assay.

[2] = test system: A3-KAW; type: functional, cell-based; settings: Homo sapiens;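 further: growth inhibition of human A3-KAW cells, read out with a cell viability assay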
Description: SANGER: Inhibition of human A3-KAW cell growth in a cell viability assay.

[3] = test system: DB; type: functional, cell-based; settings: Homo sapiens
Description: SANGER: Inhibition of human DB cell growth in a cell viability assay.

[4] = test system: NCI-H23; type: functional, cell-based, Homo sapiens; settings: Homo sapiens, NCI-H23;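 further: cell viability assay measuring growth inhibition of NCI-H23 cells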
Description: SANGER: Inhibition of human NCI-H23 cell growth in a cell viability assay.

[5] = test system: HT-29; type: functional, cell-based, Homo sapiens; settings: Homo sapiens, HT-29;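 further: growth inhibition of human HT-29 cells, read out by a cell viability assay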
Description: SANGER: Inhibition of human HT-29 cell growth in a cell viability assay.

[6] = test system: D-502MG; type: functional, cell-based, Homo sapiens; settings: Homo sapiens, D-502MG
Description: SANGER: Inhibition of human D-502MG cell growth in a cell viability assay.

[7] = test system: VM-CUB-1; type: functional, cell-based; settings: Homo sapiens;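 further: cell viability assay measuring growth inhibition of the human VM-CUB-1 cell line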
Description: SANGER: Inhibition of human VM-CUB-1 cell growth in a cell viability assay.

[8] = test system: P12-Ichikawa; type: functional, cell-based; settings: Homo sapiens
[9] = test system: IST-MES1; type: functional, cell-based, Homo sapiens; settings: Homo sapiens, IST-MES1;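 further: growth inhibition of IST-MES1 cells, measured with a cell viability assay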
Description: SANGER: Inhibition of human IST-MES1 cell growth in a cell viability assay.

[10] = test system: SK-MES-1; type: functional, cell-based, Homo sapiens; settings: Homo sapiens, SK-MES-1;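 further: growth inhibition of human SK-MES-1 cells, read out with a cell viability assay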
Description: SANGER: Inhibition of human SK-MES-1 cell growth in a cell viability assay.

[11] = test system: NOMO-1; type: functional, cell-based; settings: Homo sapiens;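 further: growth inhibition of human NOMO-1 cells measured by a cell viability assay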
Description: SANGER: Inhibition of human NOMO-1 cell growth in a cell viability assay.

[12] = test system: SW837; type: functional, cell-based, Homo sapiens; settings: Homo sapiens, SW837;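 further: growth inhibition of SW837 cells, determined with a cell viability assay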
Description: SANGER: Inhibition of human SW837 cell growth in a cell viability assay.

[13] = test system: MHH-NB-11; type: functional, cell-based, Homo sapiens; settings: Homo sapiens, MHH-NB-11;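 further: growth inhibition of human MHH-NB-11 cells, read out by a cell viability assay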
Description: SANGER: Inhibition of human MHH-NB-11 cell growth in a cell viability assay.

[14] = test system: SF-539; type: functional, cell-based, Homo sapiens; settings: Homo sapiens, SF-539;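 further: Read-out is a cell viability assay, with IC50 reflecting inhibition of cell growth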
Description: SANGER: Inhibition of human SF539 cell growth in a cell viability assay.

[15] = test system: HOP-92; type: functional, cell-based, Homo sapiens; settings: Homo sapiens, HOP-92;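 further: cell viability readout, with IC50 reflecting inhibition of HOP-92 cell growth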
Description: SANGER: Inhibition of human HOP-92 cell growth in a cell viability assay.

[16] = test system: LB771-HNC; type: functional, cell-based, Homo sapiens; settings: Homo sapiens, LB771-HNC;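 further: growth inhibition of LB771-HNC human cells, read out with a cell viability assay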
Description: SANGER: Inhibition of human LB771-HNC cell growth in a cell viability assay.

[17] = test system: DMS-273; type: functional, cell-based, Homo sapiens; settings: Homo sapiens, DMS-273
Description: SANGER: Inhibition of human DMS-273 cell growth in a cell viability assay.

[18] = test system: MeWo; type: functional, cell-based, Homo sapiens; settings: Homo sapiens, MeWo;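 further: growth inhibition of MeWo cells, determined by a cell viability readout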
Description: SANGER: Inhibition of human Mewo cell growth in a cell viability assay.

[19] = test system: OVCAR-4; type: functional, cell-based, Homo sapiens; settings: Homo sapiens, OVCAR-4;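 further: growth inhibition of human OVCAR-4 cells, measured with a cell viability assay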
Description: SANGER: Inhibition of human OVCAR-4 cell growth in a cell viability assay.

[20] = test system: PA-1; type: functional, cell-based, Homo sapiens; settings: Homo sapiens, PA-1;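 further: IC50 for suppression of PA-1 cell proliferation, determined with a cell viability read-out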
Description: SANGER: Inhibition of human PA-1 cell growth in a cell viability assay.

[21] = test system: TE-1; type: functional, cell-based, Homo sapiens; settings: Homo sapiens, TE-1;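 further: growth inhibition of the human TE-1 cell line, read out with a cell viability assay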
Description: SANGER: Inhibition of human TE-1 cell growth in a cell viability assay.

[22] = test system: NB6; type: functional, cell-based, Homo sapiens; settings: Homo sapiens, NB6;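 further: growth inhibition of NB6 cells, read out by a cell viability assay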
Description: SANGER: Inhibition of human NB6 cell growth in a cell viability assay.

[23] = test system: OVCAR-5; type: functional, cell-based, Homo sapiens; settings: Homo sapiens, OVCAR-5;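 further: growth inhibition of human OVCAR-5 cells, read out with a cell viability assay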
Description: SANGER: Inhibition of human OVCAR-5 cell growth in a cell viability assay.

[24] = test system: KNS-81-FD; type: functional, cell-based, Homo sapiens; settings: Homo sapiens, KNS-81-FD;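 further: growth inhibition of KNS-81-FD cells, read out with a cell viability assay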
Description: SANGER: Inhibition of human KNS-81-FD cell growth in a cell viability assay.

[25] = test system: MZ2-MEL; type: functional, cell-based, Homo sapiens; settings: Homo sapiens, MZ2-MEL;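 further: growth inhibition of MZ2-MEL cells read out with a cell viability assay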
Description: SANGER: Inhibition of human MZ2-MEL cell growth in a cell viability assay.

[26] = test system: MPP-89; type: functional, cell-based, Homo sapiens; settings: Homo sapiens, MPP-89;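 further: growth inhibition of human MPP-89 cells, read out with a cell viability assay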
Description: SANGER: Inhibition of human MPP-89 cell growth in a cell viability assay.

[27] = test system: CP66-MEL; type: functional, cell-based, Homo sapiens; settings: Homo sapiens, CP66-MEL;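 further: growth inhibition of CP66-MEL cells determined in a cell viability assay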
Description: SANGER: Inhibition of human CP66-MEL cell growth in a cell viability assay.

[28] = test system: A253 cell line; type: functional, cell-based, Homo sapiens; settings: Homo sapiens, A253;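 further: growth inhibition of A253 cells, read out with a cell viability assay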
Description: SANGER: Inhibition of human A253 cell growth in a cell viability assay.

[29] = test system: NCI-H1793; type: functional, cell-based, Homo sapiens; settings: Homo sapiens, NCI-H1793;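 further: cell growth inhibition, read out by a cell viability assay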
Description: SANGER: Inhibition of human NCI-H1793 cell growth in a cell viability assay.

[30] = test system: NCI-H69; type: functional, cell-based; settings: Homo sapiens;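 further: growth inhibition of the cell line, read out with a cell viability assay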
Description: SANGER: Inhibition of human NCI-H69 cell growth in a cell viability assay.

[31] = test system: 5637; type: functional, cell-based, Homo sapiens; settings: Homo sapiens
Description: SANGER: Inhibition of human 5637 cell growth in a cell viability assay.

[32] = test system: HCC1419; type: functional, cell-based, Homo sapiens; settings: Homo sapiens, HCC1419;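 further: growth inhibition of human HCC1419 cells, read out as cell viability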
Description: SANGER: Inhibition of human HCC1419 cell growth in a cell viability assay.

[33] = test system: HT1197; type: functional, cell-based, Homo sapiens, HT-1197; settings: Homo sapiens, HT1197
Description: SANGER: Inhibition of human HT-1197 cell growth in a cell viability assay.

[34] = test system: SK-MEL-28; type: functional, cell-based; settings: Homo sapiens;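 further: growth inhibition of human SK-MEL-28 cells, read out with a cell viability assay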
Description: SANGER: Inhibition of human SK-MEL-28 cell growth in a cell viability assay.

[35] = test system: 647-V; type: functional, cell-based, Homo sapiens; settings: Homo sapiens, 647-V;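 further: growth inhibition of 647-V cells, read out with a cell viability assay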
Description: SANGER: Inhibition of human 647-V cell growth in a cell viability assay.

[36] = test system: HPAF-II; type: functional, cell-based, Homo sapiens; settings: Homo sapiens, HPAF-II;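 further: growth inhibition of HPAF-II cells, read out with a cell viability assay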
Description: SANGER: Inhibition of human HPAF-II cell growth in a cell viability assay.

[37] = test system: MOLT-16; type: functional, cell-based; settings: Homo sapiens;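 further: growth inhibition of human MOLT-16 cells, read out with a cell viability assay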
Description: SANGER: Inhibition of human MOLT-16 cell growth in a cell viability assay.

[38] = test system: OCUB-M; type: functional, cell-based, Homo sapiens; settings: Homo sapiens, OCUB-M;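 further: growth inhibition of the cancer cell line, read out through a cell viability assay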
Description: SANGER: Inhibition of human OCUB-M cell growth in a cell viability assay.

[39] = test system: MN-60; type: functional, cell-based; settings: Homo sapiens;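 further: growth inhibition of the MN-60 cell line, determined with a cell viability assay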
Description: SANGER: Inhibition of human MN-60 cell growth in a cell viability assay.

[40] = test system: ES6; type: functional, cell-based, Homo sapiens; settings: Homo sapiens, ES6;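 further: growth inhibition of human ES6 cells, read out with a cell viability assay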
Description: SANGER: Inhibition of human ES6 cell growth in a cell viability assay.

[41] = test system: TGW; type: functional, cell-based; settings: Homo sapiens;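 further: growth inhibition of human TGW cells, read out with a cell viability assay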
Description: SANGER: Inhibition of human TGW cell growth in a cell viability assay.

[42] = test system: LB1047-RCC; type: functional, cell-based, Homo sapiens; settings: Homo sapiens, LB1047-RCC;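 further: inhibition of cell growth, determined with a cell viability assay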
Description: SANGER: Inhibition of human LB1047-RCC cell growth in a cell viability assay.

[43] = test system: CAL-54; type: functional, cell-based, Homo sapiens; settings: Homo sapiens, CAL-54;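 further: growth inhibition of CAL-54 cells, read out by a viability measurement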
Description: SANGER: Inhibition of human CAL-54 cell growth in a cell viability assay.

[44] = test system: MIA PaCa-2; type: functional, cell-based, Homo sapiens; settings: Homo sapiens, MIA PaCa-2;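 further: growth inhibition of MIA PaCa-2 cells, read out with a cell viability assay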
Description: SANGER: Inhibition of human MIA-PaCa-2 cell growth in a cell viability assay.

[45] = test system: SK-MEL-2; type: functional, cell-based, Homo sapiens; settings: Homo sapiens, SK-MEL-2;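 further: growth inhibition of human SK-MEL-2 cells measured with a cell viability assay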
Description: SANGER: Inhibition of human SK-MEL-2 cell growth in a cell viability assay.

[46] = test system: KYSE-70 cell line; type: functional, cell-based, Homo sapiens; settings: Homo sapiens, KYSE-70;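 further: cell viability assay read-out, with IC50 expressing suppression of KYSE-70 cell growth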
Description: SANGER: Inhibition of human KYSE-70 cell growth in a cell viability assay.

[47] = test system: H4; type: functional, cell-based; settings: Homo sapiens
Description: SANGER: Inhibition of human H4 cell growth in a cell viability assay.

[48] = test system: UACC-893; type: functional, cell-based, Homo sapiens; settings: Homo sapiens, UACC-893
Description: SANGER: Inhibition of human UACC-893 cell growth in a cell viability assay.

[49] = test system: SW872; type: functional, cell-based, Homo sapiens; settings: Homo sapiens, SW872;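 further: growth inhibition of SW872 cells, read out by a viability assay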
Description: SANGER: Inhibition of human SW872 cell growth in a cell viability assay.

[50] = test system: BT-474; type: functional, cell-based, Homo sapiens; settings: Homo sapiens, BT-474
Description: SANGER: Inhibition of human BT-474 cell growth in a cell viability assay.

[51] = test system: ESS-1; type: functional, cell-based, Homo sapiens; settings: Homo sapiens, ESS-1;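 further: growth inhibition of human ESS-1 cells, read out by a cell viability assay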
Description: SANGER: Inhibition of human ESS-1 cell growth in a cell viability assay.

## CCOc1nc(NC(=O)Cc2cc(OC)ccc2OC)cc(N)c1C#N
[1]
  IC50: > 10000 nM
[2]
  IC50: > 10000 nM
[3]
  IC50: > 10000 nM
[4]
  IC50: > 10000 nM
[5]
  IC50: > 10000 nM
[6]
  IC50: > 10000 nM
[7]
  IC50: > 10000 nM
[8]
  IC50: > 10000 nM
[9]
  IC50: > 10000 nM
[10]
  IC50: > 10000 nM
[11]
  IC50: > 10000 nM
[12]
  IC50: > 10000 nM
[13]
  IC50: > 10000 nM
[14]
  IC50: > 10000 nM
[15]
  IC50: > 10000 nM
[16]
  IC50: > 10000 nM
[17]
  IC50: > 10000 nM
[18]
  IC50: > 10000 nM
[19]
  IC50: > 10000 nM
[20]
  IC50: > 10000 nM
[21]
  IC50: > 10000 nM
[22]
  IC50: > 10000 nM
[23]
  IC50: > 10000 nM
[24]
  IC50: > 10000 nM
[25]
  IC50: > 10000 nM
[26]
  IC50: > 10000 nM
[27]
  IC50: > 10000 nM
[28]
  IC50: > 10000 nM
[29]
  IC50: > 10000 nM
[30]
  IC50: > 10000 nM
[31]
  IC50: > 10000 nM
[32]
  IC50: > 10000 nM
[33]
  IC50: > 10000 nM
[34]
  IC50: > 10000 nM
[35]
  IC50: > 10000 nM
[36]
  IC50: > 10000 nM
[37]
  IC50: > 10000 nM
[38]
  IC50: > 10000 nM
[39]
  IC50: > 10000 nM
[40]
  IC50: > 10000 nM
[41]
  IC50: > 10000 nM
[42]
  IC50: > 10000 nM
[43]
  IC50: > 10000 nM
[44]
  IC50: > 10000 nM
[45]
  IC50: > 10000 nM
[46]
  IC50: > 10000 nM
[47]
  IC50: > 10000 nM
[48]
  IC50: > 10000 nM
[49]
  IC50: > 10000 nM
[50]
  IC50: > 10000 nM
[51]
  IC50: > 10000 nM

## C=CCNC1=C2C[C@@H](C)C[C@H](OC)[C@H](O)[C@@H](C)/C=C(\C)[C@H](OC(N)=O)[C@@H](OC)/C=C\C=C(/C)C(=O)NC(=CC1=O)C2=O [TANESPIMYCIN]
[1]
  IC50: 103 nM
[2]
  IC50: 342 nM
[3]
  IC50: > 1000 nM
[4]
  IC50: 26.6 nM
[5]
  IC50: 69.2 nM
[6]
  IC50: > 1000 nM
[7]
  IC50: 36.6 nM
[8]
  IC50: > 1000 nM
[9]
  IC50: > 1000 nM
[10]
  IC50: 36.1 nM
[11]
  IC50: > 1000 nM
[12]
  IC50: > 1000 nM
[13]
  IC50: > 1000 nM
[14]
  IC50: 66.8 nM
[15]
  IC50: > 1000 nM
[16]
  IC50: > 1000 nM
[17]
  IC50: 339 nM
[18]
  IC50: 149 nM
[19]
  IC50: > 1000 nM
[20]
  IC50: 954 nM
[21]
  IC50: 92 nM
[22]
  IC50: > 1000 nM
[23]
  IC50: 34.8 nM
[24]
  IC50: 184 nM
[25]
  IC50: 65.5 nM
[26]
  IC50: 141 nM
[27]
  IC50: 610 nM
[28]
  IC50: > 1000 nM
[29]
  IC50: 385 nM
[30]
  IC50: 976 nM
[31]
  IC50: 57.4 nM
[32]
  IC50: 146 nM
[33]
  IC50: > 1000 nM
[34]
  IC50: 113 nM
[35]
  IC50: > 1000 nM
[36]
  IC50: 213 nM
[37]
  IC50: > 1000 nM
[38]
  IC50: > 1000 nM
[39]
  IC50: > 1000 nM
[40]
  IC50: > 1000 nM
[41]
  IC50: > 1000 nM
[42]
  IC50: 53 nM
[43]
  IC50: > 1000 nM
[44]
  IC50: 10.1 nM
[45]
  IC50: 90.6 nM
[46]
  IC50: 333 nM
[47]
  IC50: 30.9 nM
[48]
  IC50: 637 nM
[49]
  IC50: 608 nM
[50]
  IC50: 45 nM
[51]
  IC50: 248 nM

## Cc1cnc(-c2cnc(NCCNc3ccc(C#N)cn3)nc2-c2ccc(Cl)cc2Cl)[nH]1 [LADUVIGLUSIB]
[1]
  IC50: > 2560 nM
[2]
  IC50: > 2560 nM
[3]
  IC50: > 2560 nM
[4]
  IC50: > 2560 nM
[5]
  IC50: > 2560 nM
[6]
  IC50: > 2560 nM
[7]
  IC50: > 2560 nM
[8]
  IC50: > 2560 nM
[9]
  IC50: > 2560 nM
[10]
  IC50: > 2560 nM
[11]
  IC50: > 2560 nM
[12]
  IC50: > 2560 nM
[13]
  IC50: > 2560 nM
[14]
  IC50: > 2560 nM
[15]
  IC50: > 2560 nM
[16]
  IC50: > 2560 nM
[17]
  IC50: > 2560 nM
[18]
  IC50: > 2560 nM
[19]
  IC50: > 2560 nM
[20]
  IC50: > 2560 nM
[21]
  IC50: > 2560 nM
[22]
  IC50: > 2560 nM
[23]
  IC50: > 2560 nM
[24]
  IC50: > 2560 nM
[25]
  IC50: > 2560 nM
[26]
  IC50: > 2560 nM
[27]
  IC50: > 2560 nM
[28]
  IC50: > 2560 nM
[29]
  IC50: > 2560 nM
[30]
  IC50: > 2560 nM
[31]
  IC50: > 2560 nM
[32]
  IC50: > 2560 nM
[33]
  IC50: > 2560 nM
[34]
  IC50: > 2560 nM
[35]
  IC50: > 2560 nM
[36]
  IC50: > 2560 nM
[37]
  IC50: > 2560 nM
[38]
  IC50: > 2560 nM
[39]
  IC50: > 2560 nM
[40]
  IC50: > 2560 nM
[41]
  IC50: > 2560 nM
[42]
  IC50: > 2560 nM
[43]
  IC50: > 2560 nM
[44]
  IC50: 1760 nM
[45]
  IC50: > 2560 nM
[46]
  IC50: > 2560 nM
[47]
  IC50: > 2560 nM
[48]
  IC50: > 2560 nM
[49]
  IC50: > 2560 nM
[50]
  IC50: > 2560 nM
[51]
  IC50: > 2560 nM
